The values below come from patent US7709498B2, “Quinoline derivatives as antibacterial agents” (Janssen Pharmaceutica N.V., priority 2005, dated 2010).

Converted amounts (≈) assume the structure as drawn.

Holding throughout (format): cell-based
Assay [1] relates to Enterococcus faecalis (ATCC29212). Kind of assay: Microtitre plate assay, IC90 determination, EFA 29212. As to conditions: 90% inhibitory concentration for bacterial growth, 37° C., resazurin fluorescence; for IC90: Enterococcus faecalis, ATCC29212, 24 h, read-out: IC90 (μg/ml) EFA 29212; for IC90 (μg/ml) EFA 29212: 24 hours. The method, then: (§1) The bacteria used in this study were grown overnight in flasks containing 100 ml Mueller-Hinton Broth (Becton Dickinson—cat. no. 275730) in sterile de-ionized water, with shaking, at 37° C. Stocks (0.5 ml/tube) were stored at −70° C. until use. Bacteria titrations were performed in microtiter plates to detect the TCID50, in which the TCID50 represents the dilution that gives rise to bacterial growth in 50% of inoculated cultures.
(§2) In general, an inoculum level of approximately 100 TCID50 was used for susceptibility testing.
(§3) Flat-bottom, sterile 96-well plastic microtiter plates were filled with 180 μl of sterile deionized water, supplemented with 0.25% BSA. Subsequently, stock solutions (7.8× final test concentration) of compounds were added in 45 μl volumes in column 2. Serial five-fold dilutions (45 μl in 180 μl) were made directly in the microtiter plates from column 2 to reach column 11. Untreated control samples with (column 1) and without (column 12) inoculum were included in each microtiter plate. Depending on the bacteria type, approximately 10 to 60 CFU per well of bacteria inoculum (100 TCID50), in a volume of 100 μl in 2.8× Mueller-Hinton broth medium, was added to the rows A to H, except column 12. The same volume of broth medium without inoculum was added to column 12 in row A to H. The cultures were incubated at 37° C. for 24 hours under a normal atmosphere (incubator with open air valve and continuous ventilation). At the end of incubation, one day after inoculation, the bacterial growth was quantitated fluorometrically. Therefore resazurin (0.6 mg/ml) was added in a volume of 20 μl to all wells 3 hours after inoculation, and the plates were re-incubated overnight. A change in colour from blue to pink indicated the growth of bacteria. The fluorescence was read in a computer-controlled fluorometer (Cytofluor Biosearch) at an excitation wavelength of 530 nm and an emission wavelength of 590 nm. The % growth inhibition achieved by the compounds was calculated according to standard methods. The IC90 (expressed in μg/ml) was defined as the 90% inhibitory concentration for bacterial growth.
(§4) BSU 3639 means Bacillus subtilis (ATCC43639); ECO 25922 means Escherichia coli (ATCC25922); EFA 14506 means Enterococcus faecalis (ATCC14506); EFA 29212 means Enterococcus faecalis (ATCC29212); LMO 49594 means Listeria monocytogenes (ATCC49594); PAE 27853 means Pseudomonas aeruginosa (ATCC27853); SMU 33402 means Streptococcus mutans (ATCC33402); SPN 6305 means Streptococcus pneumoniae (ATCC6305); SPY 8668 means Streptococcus pyogens (ATCC8668); STA 43300 means Staphylococcus aureus (ATCC43300); STA 25923 means Staphylococcus aureus (ATCC25923); STA 29213 means Staphylococcus aureus (ATCC29213); STA RMETH means methicilline resistant Staphylococcus aureus (MRSA) (a clinical isolate from the University of Antwerp). ATCC means American type tissue culture.

The subject of assay [2] is Streptococcus mutans (ATCC33402). Kind of assay: Microtitre plate assay, IC90 determination, SMU 33402. The note with it: Streptococcus mutans, ATCC33402, 24 h, 90% inhibitory concentration for bacterial growth, 37° C., resazurin fluorescence, read-out: IC90 (μg/ml) SMU 33402. The method, then: as §1, §2, §3, §4
For orientation: Alamar Blue is a resazurin reagent that responds to reducing activity.

The test system of assay [3] is Listeria monocytogenes (ATCC49594). Kind of assay: Microtitre plate assay, IC90 determination, LMO 49594. The note with it: 90% inhibitory concentration for bacterial growth, 37° C., resazurin fluorescence; for IC90: Listeria monocytogenes, ATCC49594, 24 h, read-out: IC90 (μg/ml) LMO 49594; for IC90 (μg/ml) LMO 49594: 24 hours. The method, then: as §1, §2, §3, §4

The test system of assay [4] is Streptococcus pneumoniae (ATCC6305). Nature of the assay: Microtitre plate assay, IC90 determination, SPN 6305. The note with it: 90% inhibitory concentration for bacterial growth, 37° C., resazurin fluorescence; for IC90 (μg/ml) SPN 6305: 24 hours; for IC90: Streptococcus pneumoniae, ATCC6305, 24 h, read-out: IC90 (μg/ml) SPN 6305. The method, then: as §1, §2, §3, §4

Assay [5] concerns Staphylococcus aureus (ATCC43300). Kind of assay: Microtitre plate assay, IC90 determination, STA 43300. The note with it: Staphylococcus aureus, ATCC43300, 24 h, 90% inhibitory concentration for bacterial growth, 37° C., resazurin fluorescence, read-out: IC90 (μg/ml) STA 43300. The method, then:
as §1, §2, §3, §4

The subject of assay [6] is Pseudomonas aeruginosa (ATCC27853). Kind of assay: Microtitre plate assay, IC90 determination, PAE 27853. The note with it: Pseudomonas aeruginosa, ATCC27853, 24 h, 90% inhibitory concentration for bacterial growth, 37° C., resazurin fluorescence, read-out: IC90 (μg/ml) PAE 27853. Here is the method:
as §1, §2, §3, §4

Assay [7] relates to Streptococcus pyogens (ATCC8668). Nature of the assay: Microtitre plate assay, IC90 determination, SPY 8668. The note with it: 90% inhibitory concentration for bacterial growth, 37° C., resazurin fluorescence; for IC90: Streptococcus, ATCC8668, 24 h, read-out: IC90 (μg/ml) SPY 8668. Here is the method: as §1, §2, §3, §4
Assay [8] has as its system Bacillus subtilis (ATCC43639). Kind of assay: Microtitre plate assay, IC90 determination, BSU 43639. The note with it: 90% inhibitory concentration for bacterial growth, 37° C., resazurin fluorescence; for IC90: Bacillus subtilis, ATCC43639, 24 h, read-out: IC90 (μg/ml) BSU 43639; for IC90 (μg/ml) BSU 43639: 24 hours. The method, then: as §1, §2, §3, §4

With `COc1nc2ccc(Br)cc2cc1C(c1ccccc1)C(O)(CCN(C)C)c1cccs1` (stereo not drawn) [Compound 21], the IC90 was 11.5 µg/mL (≈ 22.5 µM) in assay [1], 11.5 µg/mL (≈ 22.5 µM) in assay [2], 4.6 µg/mL (≈ 8.99 µM) in assay [3] and 12.8 µg/mL (≈ 25 µM) in assay [5]. The “IC90 (μg/ml) SPN 6305” value in assay [4] is 12.8 µg/mL (≈ 25 µM).
As for `COc1nc2ccc(Br)cc2cc1C(c1ccccc1)C(O)(CCN(C)C)c1ccc(Cl)cc1` (stereo not drawn) [Compound 16], the IC90 in assay [6] came out at 13.6 µg/mL (≈ 25.2 µM).
Turning to `COc1nc2ccc(Br)cc2cc1C(c1ccccc1)C(O)(CCN1CCCCC1)c1ccc2ccccc2c1` (stereo not drawn) [Compound 129], the IC90 in assay [2] was determined as 11.9 µg/mL (≈ 20 µM); in assay [4] it was 15 µg/mL (≈ 25.2 µM); in assay [7], 11.9 µg/mL (≈ 20 µM).
With `COc1nc2ccc(Br)cc2cc1C(c1ccccc1)C(O)(CCN(C)C)c1ccc2ccccc2c1` (stereo not drawn) [Compound 46], the IC90 in assay [1] came to 5 µg/mL (≈ 9 µM); in assay [2] it was 5.6 µg/mL (≈ 10.1 µM); in assay [3], 2.8 µg/mL (≈ 5.04 µM); in assay [4] it was 2.8 µg/mL (≈ 5.04 µM); in assay [5], 5.6 µg/mL (≈ 10.1 µM); in assay [7], 0.6 µg/mL (≈ 1.08 µM). For the same compound, in assay [6], the IC90 was found to be 5 µg/mL (≈ 9 µM).
As for `COc1nc2ccc(Br)cc2cc1C(c1ccccc1)C(O)(CCN(C)C)c1ccc2c(c1)OCCO2` (stereo not drawn) [Compound 77], the IC90 came to 14.2 µg/mL (≈ 25.2 µM) in assay [4] and 11.2 µg/mL (≈ 19.9 µM) in assay [6].
Regarding `COc1nc2ccc(Br)cc2cc1C(c1ccc(C)cc1)C(O)(CCN(C)C)c1cccc2ccccc12` (stereo not drawn) [Compound 72], the IC90 in assay [2] came out at 9 µg/mL (≈ 15.8 µM); in assay [4], 14.3 µg/mL (≈ 25.1 µM); in assay [7], 11.4 µg/mL (≈ 20 µM).
As for `COc1nc2ccc(Cl)cc2cc1C(c1ccccc1)C(O)(CCN(C)C)c1ccccc1` (stereo not drawn) [Compound 31], the IC90 in assay [8] came to 10.3 µg/mL (≈ 22.3 µM); in assay [2] it was 10.3 µg/mL (≈ 22.3 µM); in assay [4], 5.2 µg/mL (≈ 11.3 µM); in assay [5], 11.6 µg/mL (≈ 25.2 µM); in assay [6], 10.3 µg/mL (≈ 22.3 µM). Besides, the “IC90 (μg/ml) EFA 29212” value in assay [1] was 4.6 µg/mL (≈ 9.98 µM). The “IC90 (μg/ml) LMO 49594” value in assay [3] is 4.1 µg/mL (≈ 8.89 µM). Further, in assay [7] (24 hours), the “IC90 (μg/ml) SPY 8668” value is 1.8 µg/mL (≈ 3.9 µM).
With `COc1nc2ccc(-c3ccccc3)cc2cc1C(c1ccccc1)C(O)(CCN(C)C)c1ccccc1` (stereo not drawn) [Compound 27], the “IC90 (μg/ml) BSU 43639” value in assay [8] was found to be 10.0 µg/mL (≈ 19.9 µM). Also, in assay [3], the “IC90 (μg/ml) LMO 49594” value was 8.9 µg/mL (≈ 17.7 µM). In addition, the “IC90 (μg/ml) SPN 6305” value in assay [4] came out at 12.6 µg/mL (≈ 25.1 µM).
With `CCN(CC)CCC(O)(c1ccccc1)C(c1ccccc1)c1cc2cc(Br)ccc2nc1OC` (stereo not drawn) [Compound 18], the IC90 in assay [1] and in assay [3] was 13.3 µg/mL (≈ 24.9 µM) in each case. In addition, in assay [4], the “IC90 (μg/ml) SPN 6305” value came to 0.7 µg/mL (≈ 1.31 µM).
With `COc1nc2ccc(-c3cccnc3)cc2cc1C(c1ccccc1)C(O)(CCN(C)C)c1cc(F)cc(F)c1` (stereo not drawn) [Compound G], the IC90 in assay [8] worked out at 13.6 µg/mL (≈ 25.2 µM); in assay [1], 10.8 µg/mL (≈ 20 µM); in assay [3], 10.8 µg/mL (≈ 20 µM).
In the case of `COc1nc2ccc(Br)cc2cc1C(c1ccccc1)C(O)(CCN1CCN(C)CC1)c1ccc2ccccc2c1` (racemic) [Compound 136], the “IC90 (μg/ml) BSU 43639” value in assay [8] worked out at 10.6 µg/mL (≈ 17.4 µM). For the same compound, in assay [1], the “IC90 (μg/ml) EFA 29212” value was 10.6 µg/mL (≈ 17.4 µM). Further, the “IC90 (μg/ml) LMO 49594” value in assay [3] amounted to 10.6 µg/mL (≈ 17.4 µM).
With `COc1nc2ccc(Br)cc2cc1C(c1ccccc1)C(O)(CCN1CCN(C)CC1)c1ccccc1` (racemic) [Compound 51], the “IC90 (μg/ml) BSU 43639” value in assay [8] is 28.1 µg/mL (≈ 50.1 µM). The “IC90 (μg/ml) EFA 29212” value in assay [1] came out at 25.0 µg/mL (≈ 44.6 µM). In addition, the “IC90 (μg/ml) LMO 49594” value in assay [3] stood at 25.0 µg/mL (≈ 44.6 µM). Also, in assay [4], the “IC90 (μg/ml) SPN 6305” value was determined as 5.6 µg/mL (≈ 9.99 µM).
